Results published in PMC10716148 (Scientific Reports, 2023).
Entries after “also recorded” stand apart in the source; their conditions may differ.

How the values were obtained:
melanocytes = system: melanocytes; parameters: method as in Tang et al. [15]; conditions: ref Tang et al. [15]; cited from earlier work
B16F10 melanoma cells [1] = assay: Cytotoxicity assay (MTT) in B16F10 cells; format: cell-based, Murine; conditions: for Cytotoxicity: B16F10 melanoma cells, 72 h
Method: (§1) Murine melanoma B16F10 cells (obtained from DS Pharma Biomedical, Japan) were cultivated in Dulbecco's Modified Eagle Medium (DMEM), a liquid medium supplemented with 10% fetal bovine serum (FBS) and 1% penicillin/streptomycin. The cells were incubated at a temperature of 37 °C within a controlled humidified environment containing 5% CO2. To facilitate subculture, the cells were detached from the culture flask using trypsin solution. Subsequently, the cells were subjected to staining with trypan blue solution and quantified using a hemocytometer for further analysis. The final concentration of DMSO was 0.1% for all experiments.
Cytotoxicity was assessed through the utilization of the MTT assay. The cell culture was initiated in 24-well plates, with a seeding density of 5 × 10^4 cells per well. After treatment with samples for 72 h, 10 µL of MTT solution (5 mg/mL in PBS) were added to each well and incubated for additional 3 h. Then, supernatant was removed and DMSO (250 µL) was added to dissolve the formed formazan crystals. The absorbance was measured at 570 nm using a microplate reader. Cells treated solely with DMSO served as the control. All experiments were conducted in triplicate. The percentage of cell viability was determined using the following calculation: %Cellviability=Abstreated cells-Absblank of treated cells/Abscontrol-Absblank of control×100

B16F10 melanoma cells [2] = assay: Anti-melanogenic assay (melanin content) in B16F10 cells; format: cell-based, Murine; conditions: mean ± SD (n = 3)
Method: as §1
Murine melanoma B16F10 cells were gently rinsed with phosphate-buffered saline (PBS) and detached from the cell tissue culture dish using trypsin. The cells were subsequently seeded in 24-well culture plates at a density of 5 × 10^4 cells per well and allowed to incubate for 24 h before being subjected to treatment with the experimental samples. Arbutin was used as a positive control. Following the treatment, the cells were further incubated for an additional 72 h, and the absorbance was measured at 510 nm using a microplate reader. Melanin production was expressed as a percentage relative to the control cells treated with DMSO. All experiments were conducted in triplicate. The IC50 value was calculated. The percentage of total melanin content was determined using the following equation: %Totalmelanincontent=Abstreated cells-Absblank of treated cells/Abscontrol-Absblank of control×100

[3] = Accelerated stability test, chemical stability by HPLC; format: physicochemical; conditions: for remaining at 720 h: cosmetic formulation F1, after 30 days (1 month) at 45 °C
[4] = Mus musculus, B16-F10, 72 h treatment

Compound	IC50 (B16F10 melanoma cells [2]; [4])	Content in formulation F1 ([3]; Day 1, HPLC)	Content in formulation F1 ([3]; Day 30, 45 °C, HPLC)	remaining at 720 h [3]	%Remaining in formulation F1 ([3]; after 30 days (1 month) at 45 °C)	Effect on melanin production and melanocyte growth (melanocytes)	Cytotoxicity (in words) (B16F10 melanoma cells [1]; B16F10 cells, b13: 72 h, concentrations as high as 1000 µM)	Cytotoxicity (B16F10 melanoma cells [1])	IC50 (B16F10 melanoma cells [2]; 72 h treatment)
O=c1c(O)c(-c2ccc(O)cc2)oc2cc(O)cc(O)c12 [kaempferol]	–	–	–	–	–	induce melanin production and melanocyte growth	–	–	–
Quercetin-3-O-rhamnoside [Compound 1]	–	–	–	–	–	–	–	–	135 ± 2.1 µM
OC[C@H]1O[C@@H](Oc2ccc(O)cc2)[C@H](O)[C@@H](O)[C@@H]1O [Arbutin]	807.6 ± 2.9 µM	0.1991 ± 0.0004 %w/w	0.1940 ± 0.0057 %w/w	> 90%	97.44%	–	–	> 1000 µM	–

The next lines start with results.

IC50 (B16F10 melanoma cells [2]; [4])	Content in formulation F1 ([3]; Day 1, HPLC)	Content in formulation F1 ([3]; Day 30, 45 °C, HPLC)	remaining at 720 h [3]	%Remaining in formulation F1 ([3]; after 30 days (1 month) at 45 °C)	Compound	Effect on melanin production and melanocyte growth (melanocytes)	Cytotoxicity (in words) (B16F10 melanoma cells [1]; B16F10 cells, b13: 72 h, concentrations as high as 1000 µM)	Cytotoxicity (B16F10 melanoma cells [1])	IC50 (B16F10 melanoma cells [2]; 72 h treatment)
23 ± 1.3 µM	0.0050 ± 0.0005 %w/w	0.0048 ± 0.0003 %w/w	> 90%	–	C[C@@H]1O[C@@H](Oc2cc(O)c3c(=O)c(O)c(-c4ccc(O)cc4)oc3c2)[C@H](O)[C@H](O)[C@H]1O [Compound 3, kaempferol-7-O-α-L-rhamnopyranoside]	–	absence of discernible cytotoxicity; also recorded: no significant toxicity was observed	> 1000 µM	–
> 200 µM	–	–	–	–	CC1OC(Oc2cc(O)c3c(=O)c(OC4OC(CO)C(O)C(O)C4O)c(-c4ccc(O)cc4)oc3c2)C(O)C(O)C1O [Compound 4, kaempferol-3-O-β-D-glucopyranosyl-7-O-α-L-rhamnopyranoside]	–	–	> 1000 µM	–
